From ChEMBL document CHEMBL4842377, “Synthesis and biological evaluation of selective histone deacetylase 6 inhibitors as multifunctional agents against Alzheimer's disease” (Eur J Med Chem, 2021)
Values belong to the compound of their own block, whether it stands above or below them. Activity calls are given as the source filed them. The calls are words filed in the database; no cut-off is given here.

What was measured:
[1] = biological target: T1, Protein deacetylase HDAC6 (Homo sapiens, UniProt Q9UBN7); test: Inhibition of human HDAC6 using fluorogenic substrate incubated for 1 hrs by fluorescence plate reader assay
T1 sequence (Q9UBN7 whole entry): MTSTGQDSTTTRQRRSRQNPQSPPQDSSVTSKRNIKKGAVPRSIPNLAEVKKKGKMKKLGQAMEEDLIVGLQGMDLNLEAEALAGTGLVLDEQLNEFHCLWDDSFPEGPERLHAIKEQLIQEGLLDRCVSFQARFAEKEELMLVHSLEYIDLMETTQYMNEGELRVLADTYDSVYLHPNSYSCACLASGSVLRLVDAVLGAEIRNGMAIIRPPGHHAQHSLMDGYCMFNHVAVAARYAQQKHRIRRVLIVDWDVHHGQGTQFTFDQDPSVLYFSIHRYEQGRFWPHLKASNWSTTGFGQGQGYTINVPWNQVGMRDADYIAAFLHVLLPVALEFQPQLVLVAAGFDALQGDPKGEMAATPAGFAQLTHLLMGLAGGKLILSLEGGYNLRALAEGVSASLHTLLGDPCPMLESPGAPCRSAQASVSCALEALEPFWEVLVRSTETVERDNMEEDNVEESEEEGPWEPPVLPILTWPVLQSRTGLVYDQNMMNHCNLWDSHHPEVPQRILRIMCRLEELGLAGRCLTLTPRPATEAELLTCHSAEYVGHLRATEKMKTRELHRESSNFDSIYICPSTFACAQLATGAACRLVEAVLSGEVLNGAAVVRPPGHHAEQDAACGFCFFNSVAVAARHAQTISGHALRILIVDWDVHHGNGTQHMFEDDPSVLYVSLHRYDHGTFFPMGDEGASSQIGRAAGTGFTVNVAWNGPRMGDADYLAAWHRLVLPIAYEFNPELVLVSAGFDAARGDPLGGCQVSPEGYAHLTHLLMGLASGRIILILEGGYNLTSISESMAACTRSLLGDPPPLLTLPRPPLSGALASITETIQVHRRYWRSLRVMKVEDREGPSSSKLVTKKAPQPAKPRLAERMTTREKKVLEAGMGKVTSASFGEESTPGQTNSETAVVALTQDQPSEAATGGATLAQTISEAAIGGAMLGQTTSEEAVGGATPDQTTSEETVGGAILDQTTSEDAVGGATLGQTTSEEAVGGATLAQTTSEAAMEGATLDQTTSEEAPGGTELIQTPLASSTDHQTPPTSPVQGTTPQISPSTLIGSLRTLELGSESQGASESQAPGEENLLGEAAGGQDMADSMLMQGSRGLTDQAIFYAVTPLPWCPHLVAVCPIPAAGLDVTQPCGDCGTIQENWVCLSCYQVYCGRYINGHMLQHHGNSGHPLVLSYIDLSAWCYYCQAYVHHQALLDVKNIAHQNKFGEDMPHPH

Homo sapiens [2] = species on record: Homo sapiens; test: Selectivity ratio of IC50 for human HDAC6 to IC50 for human HDAC1
Homo sapiens [3] = species on record: Homo sapiens; test: Selectivity ratio of IC50 for human HDAC6 to IC50 for human HDAC2
Homo sapiens [4] = species on record: Homo sapiens; test: Selectivity ratio of IC50 for human HDAC6 to IC50 for human HDAC8
Homo sapiens [5] = species on record: Homo sapiens; test: Selectivity ratio of IC50 for human HDAC6 to IC50 for human HDAC4
Homo sapiens [6] = species on record: Homo sapiens; test: Selectivity ratio of IC50 for human HDAC6 to IC50 for human HDAC10
Homo sapiens [7] = species on record: Homo sapiens; test: Selectivity ratio of IC50 for human HDAC6 to IC50 for human HDAC11
[8] = biological target: T2, Protein deacetylase HDAC6 (Homo sapiens) (UniProt Q9UBN7); test: Inhibition of HDAC6 in human SH-SY5Y cells assessed as increase in acetylated alpha tubulin level measured after 24 hrs by Western blot analysis; format: cell-based; details: dose 0.25-1 µM
T2 sequence (whole entry): T1 sequence (Q9UBN7 whole entry)

[9] = biological target: T2, Protein deacetylase HDAC6 (Homo sapiens); test: Inhibition of HDAC6 in human SH-SY5Y cells assessed as increase in acetylated histone level measured after 24 hrs by Western blot analysis; format: cell-based
[10] = biological target: T2, Protein deacetylase HDAC6 (Homo sapiens); test: Inhibition of HDAC6 in human SH-SY5Y cells assessed as reduction in tau phosphorylation at Ser396 residue by Western blot analysis; format: cell-based
[11] = biological target: T2, Protein deacetylase HDAC6 (Homo sapiens); test: Inhibition of HDAC6 in human SH-SY5Y cells assessed as reduction in tau phosphorylation at Ser396 residue at 20 uM by Western blot analysis; format: cell-based
[12] = Disaggregation of Cu2+ induced amyloid beta (1 to 42 residues) (unknown origin) aggregation measuring reduction in fluorescence intensity at 20 uM after 24 hrs by thioflavin-T fluorescence method relative to control; design: scale not given: the % may be the effect or the level left
SH-SY5Y [13] = test: Induction of neurite outgrowth in human SH-SY5Y cells at 10 uM incubated for 3 days by inverted microscopy; format: functional, cell-based; details: time 3.0 day
SH-SY5Y [14] = test: Induction of neurogenesis in human SH-SY5Y cells assessed as induction of GAP-43 mRNA expression at 10 uM measured after 24 hrs by RT-PCR analysis relative to control; format: functional
SH-SY5Y [15] = test: Induction of neurogenesis in human SH-SY5Y cells assessed as induction of N-myc mRNA expression at 10 uM measured after 24 hrs by RT-PCR analysis relative to control; format: functional
SH-SY5Y [16] = test: Induction of neurogenesis in human SH-SY5Y cells assessed as induction of MAP2 mRNA expression at 10 uM measured after 24 hrs by RT-PCR analysis relative to control; format: functional

Compound: O=C(NO)c1ccc(CN2c3ccccc3Sc3ccccc32)nc1
Selectivity ratio (Homo sapiens [2]): 292
Selectivity ratio (Homo sapiens [3]): 772
Selectivity ratio (Homo sapiens [4]): 2410
Selectivity ratio (Homo sapiens [5]): 2220
Selectivity ratio (Homo sapiens [6]): 3400
Selectivity ratio (Homo sapiens [7]): 1690
inhibition [8]: Dose-Dependent Effect
inhibition [9]: Active
inhibition [10]: Dose-Dependent Effect
inhibition [11]: 50%
Activity [12]: 40%
Activity (SH-SY5Y [13]): Active

Compound: COc1ccc2c(c1)c1c(n2Cc2ccc(C(=O)NO)cn2)CCN(C)C1
IC50 [1]: 53 nM

Compound: Cc1ccc2c(c1)c1c(n2Cc2ccc(C(=O)NO)cn2)CCN(C)C1
IC50 [1]: 83 nM

Compound: CNC(=O)c1ccc(CN(C)C23CC4C[C@@](C)(C2)C[C@](C)(C4)C3)nc1
IC50 [1]: > 1000 nM

Compound: CC1=C(/C=C/C(C)=C/C=C/C(C)=C/C(=O)O)C(C)(C)CCC1 [TRETINOIN]
Activity (SH-SY5Y [14]): 2.07
Activity (SH-SY5Y [15]): 2.3
Activity (SH-SY5Y [16]): 2.13

Compound: CN(Cc1ccc(C(=O)NO)cn1)C12CC3C[C@@](C)(C1)C[C@](C)(C3)C2
IC50 [1]: 835 nM

Next, values leading:

IC50 [1]: > 1000 nM
Compound: CNC(=O)c1ccc(CN2c3ccccc3Sc3ccccc32)nc1

IC50 [1]: > 1000 nM
Compound: O=C(Cn1cc(CN2c3ccccc3Sc3ccccc32)cn1)NO

IC50 [1]: > 1000 nM
Compound: CNC(=O)Cn1cc(CN2c3ccccc3Sc3ccccc32)cn1
